Data reported in article PMC7828111, “In Search for Multi-Target Ligands as Potential Agents for Diabetes Mellitus and Its Complications—A Structure-Activity Relationship Study on Inhibitors of Aldose Reductase and Protein Tyrosine Phosphatase 1B” (Molecules, 2021).

Key:
human recombinant AR [1] = target: T1, human recombinant AR (Homo sapiens, UniProt P15121); experiment: Inhibition of human recombinant AR, L-idose as substrate (NADPH oxidation at 340 nm); assay type: biochemical; conditions: for IC50: human recombinant AR, 2 mM L-idose as substrate, mean ± S.E.M; for AR inhibitory potency relative to the corresponding acetic acid analogues 1, 2: less potent than acetic acid analogue, analogue data ref 5; for Inhibition of human AR (in words): at concentrations up to 10 μM
T1 construct: made in house; host or cells: E. coli BL21(DE3)pLysS
Procedure: The human recombinant AR was expressed in BL21(DE3)pLysS E. coli cells and purified to electrophoretic homogeneity as previously described. The purified enzyme (specific activity 5.0 U/mg) was stored at −80 °C in 10 mM sodium phosphate buffer pH 7.0 containing 2 mM dithiothreitol and 30% (w/v) glycerol. AR activity was determined at 37 °C as previously described evaluating the decrease in absorbance at 340 nm linked to NADPH oxidation. […] One unit of enzyme activity is the amount that catalyzes the conversion of 1 μmol of substrate/min in the above assay conditions.
All compounds tested as aldose reductase inhibitors were dissolved in DMSO and added to the assay mixture containing 8 mU of purified AR. The reaction was started by addition of the substrate. The DMSO concentration in all the assays was kept constant at 0.5% (v/v) in order to avoid effects on AR activity.
The IC50 values were determined by nonlinear regression analysis using Prism GraphPad 6.0 fitting experimental data to the following equation:(1) vi/v0= Max−Min/1+( I/IC50)^slope +Min
In the equation, vi/v0, represents the ratio between the activity measured in the presence of the inhibitor and the activity measured in the absence of inhibitor; Max and Min represent the expected maximal and minimal value of the activity and were fixed at 1 and zero, respectively. Slope, which describes the steepness of curve in the transition region, was fixed at −1. For each compound, at least five different concentrations of inhibitor in the triplicate assay were analyzed.

human recombinant PTP1B [2] = target: T2, human recombinant PTP1B (Homo sapiens, UniProt P18031); experiment: Inhibition of human recombinant PTP1B, p-nitrophenyl phosphate as substrate; assay type: biochemical; conditions: for IC50: human recombinant PTP1B, mean ± S.E.M; for IC50 / remaining activity at 50 µM: pNPP as substrate; for remaining activity at 50 µM: residual activity, read-out: PTP1B % enzyme residual activity at the indicated concentration
T2 sequence (P18031 1-435): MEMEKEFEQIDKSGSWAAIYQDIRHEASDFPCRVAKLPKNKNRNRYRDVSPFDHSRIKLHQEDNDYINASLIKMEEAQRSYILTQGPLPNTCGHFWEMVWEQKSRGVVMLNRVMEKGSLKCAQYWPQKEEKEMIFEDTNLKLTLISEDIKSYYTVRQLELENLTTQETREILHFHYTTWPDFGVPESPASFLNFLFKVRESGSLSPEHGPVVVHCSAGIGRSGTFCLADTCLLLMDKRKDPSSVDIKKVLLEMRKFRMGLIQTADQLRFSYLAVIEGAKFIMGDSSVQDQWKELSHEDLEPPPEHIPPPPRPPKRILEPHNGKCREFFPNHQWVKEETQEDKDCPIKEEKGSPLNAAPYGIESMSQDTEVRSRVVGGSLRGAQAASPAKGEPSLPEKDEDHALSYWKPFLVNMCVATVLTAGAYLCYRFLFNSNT
Procedure: PTP1B activity was determined as follow. […] After an appropriate interval time, the reaction was stopped diluting assay solution with 2 mL of KOH 0.1 M. The amount of p-nitrophenol released was determined measuring the absorbance of the solution at 400 nm using a spectrophotometer and a 1-cm optical pathlength (εmM of p-nitrophenol is 18). The IC50 value was determined measuring the pNPP hydrolysis rate in the presence of increasing inhibitor concentration. For each inhibitor, 15–16 different concentrations were used. All tests were carried out in triplicate and data obtained were normalized respect to control sample.

human recombinant AR [3] = target: T1, human recombinant AR; experiment: Kinetic analysis of AR inhibition (Lineweaver-Burk and secondary plots); assay type: biochemical
Procedure: The kinetic analysis of compounds 4a, 4e and 4f was performed by measuring reaction rates with different L-idose concentrations s (S) in the absence and in the presence of different inhibitors concentrations. Data were analyzed by Linewever-Burk plots.

human recombinant PTP1B [4] = target: T2, human recombinant PTP1B; experiment: Kinetic analysis of PTP1B inhibition (Lineweaver-Burk plot); assay type: biochemical; conditions: pNPP as substrate
Procedure: Kinetic analyses were carried out to dissect action mechanism of compound 4e and 4f. Briefly, the main kinetic parameters, Km and Vmax, were calculated measuring the initial hydrolysis rate of PTP1B in the presence of increasing pNPP concentration (seven different concentrations in the 0.5–25 mM range). All assays were carried out in duplicate. Data obtained were fitted using the Michaelis-Menten equation. To evaluate the action mechanism of inhibitors, we studied the dependence of Km and Vmax from inhibitors concentration, using three different inhibitor concentrations, at least. Data obtained were then analysed by double reciprocal plot (Lineweaver-Burk plot).

human recombinant AR [5] = target: T1, human recombinant AR; experiment: Reversibility of AR inhibition (dialysis); assay type: biochemical
Procedure: In order to evaluate the reversibility of the inhibitory action, 8 mU of purified AR were assayed in the presence of 5 μM of compounds 4a, 4e and 4f. In these conditions less than 15% of the enzyme activity was measured in the presence of 2 mM L-idose as substrate. The mixture was then extensively dialysed on Amicon ultrafiltration membrane (cut off 10 KDa) against 10 mM sodium phosphate buffer, pH 7.0. After dialysis, the enzyme activity was again measured as above and compared to that of a mixture in the absence of inhibitor and treated in the same conditions.

human recombinant PTP1B [6] = target: T2, human recombinant PTP1B; experiment: Reversibility assay (dilution test) with PTP1B; assay type: biochemical; conditions: saturating inhibitor, 60 min 37 °C, diluted 400 folds
Procedure: An aliquot of the enzyme was incubated for 60 min at 37 °C in the presence of saturating amount of PTP1B inhibitor. After this time, an aliquot of the enzyme was withdrawn and diluted 400 folds in the assay buffer containing 2.5 mM of pNPP. After 15 min, the reaction was stopped by adding 1 mL of KOH 0.2 M. The amount of pNP released was calculating measuring the absorbance at 400 nm of solutions using a spectrophotometer. Data obtained were normalized respect to control tests, which was carried out diluting the enzyme with DMSO, the solvent used to dissolve all compounds. Data reported in the figure represent the mean value +/− S.E.M. (n = 3).

bovine lens AR = tested on: bovine lens AR; design: method as in PMID 15781392; conditions: glyceraldehyde as substrate; cited from earlier work
[7] = residual activity, L-idose as substrate, read-out: AR % enzyme residual activity at the indicated concentration

IC50 (human recombinant AR [1]) [µM] | IC50 (human recombinant PTP1B [2]) [µM] | melting point [°C] | remaining activity at 50 µM (human recombinant PTP1B [2]) [%] | SMILES | also measured
2.2 ± 0.1 | 34.1 ± 0.5 | – | – | O=C(O)CCN1C(=O)/C(=C/c2cccc(Oc3ccccc3)c2)SC1=S [4a, 3-{(5Z)[4-Oxo-5-(3-phenoxyphenyl)methylidene-2-thioxothiazolidin-3-yl]}propanoic acid] | AR Ki relative to K′i (human recombinant AR [3]; Ki higher than K′i): approximately 4 fold; AR K′i (apparent dissociation constant, EIS complex) (human recombinant AR [3]; L-idose as substrate): 1.4 ± 0.022 µM; Mechanism of AR inhibition (human recombinant AR [3]; L-idose as substrate): mixed-type inhibition; Ki (human recombinant AR [3]; L-idose as substrate, read-out: AR Ki (apparent dissociation constant)): 5 ± 0.57 µM; Mechanism of PTP1B inhibition (human recombinant PTP1B [4]): mixed-type non-competitive inhibitors; PTP1B K′i (apparent dissociation constant, EIS complex) (human recombinant PTP1B [4]): 68.9 ± 1.5 µM; Ki (human recombinant PTP1B [4]; read-out: PTP1B Ki (apparent dissociation constant)): 10.6 ± 1.7 µM; AR enzyme activity recovered after removal of the inhibitor upon extensive dialysis (human recombinant AR [5]; 5 μM compound before dialysis): more than 90%; AR enzyme activity measured in the presence of compound (human recombinant AR [5]; 5 μM compound, 2 mM L-idose, before dialysis): less than 15%; Reversibility of PTP1B inhibition (human recombinant PTP1B [6]): reversible inhibitors
7.6 ± 0.6 | 29.5 ± 0.4 | 218 to 219 | – | O=C(O)CCN1C(=O)/C(=C/c2ccc(Oc3ccccc3)cc2)SC1=S [4b, 3-{(5Z)[4-Oxo-5-(4-phenoxyphenyl)methylidene-2-thioxothiazolidin-3-yl]}propanoic acid] | –
3.9 ± 0.2 | 42.1 ± 0.3 | – | – | O=C(O)C=CCN1C(=O)SC(=Cc2cccc(Oc3ccccc3)c2)C1=O [5a] | Inhibitory activity towards bovine lens AR (bovine lens AR): very scarce inhibitory activity
– | 39.7 ± 0.1 | – | – | O=C(O)C=CCN1C(=O)SC(=Cc2ccc(Oc3ccccc3)cc2)C1=O [5b] | remaining activity at 10 µM (human recombinant AR [1]; [7]): 84%; Inhibition of human AR (in words) (human recombinant AR [1]; L-idose as substrate): scarce inhibition; Inhibitory activity towards bovine lens AR (bovine lens AR): almost inactive
8.4 ± 0.7 | 34.9 ± 0.7 | 170 to 173 | – | O=C(O)CCN1C(=O)/C(=C/c2ccc(OCc3ccccc3)cc2)SC1=S [4d, 3-{(5Z)-5-[(4-Benzyloxyphenyl)methylidene]-4-oxo-2-thioxothiazolidin-3-yl}propanoic acid] | –
– | 37.1 ± 0.4 | 235 to 238 | – | O=C(O)C=CCN1C(=O)SC(=Cc2ccc3ccccc3c2)C1=O [5e, 4-{(5Z)-[5-(2-Naphtylmethylidene)-2,4-dioxothiazolidin-3-yl]}-2-butenoic acid] | remaining activity at 10 µM (human recombinant AR [1]; [7]): 86%; Inhibition of human AR (in words) (human recombinant AR [1]; L-idose as substrate): scarce inhibition
– | 34.8 ± 0.5 | – | – | O=C(O)C=CCN1C(=O)SC(=Cc2ccc(-c3ccccc3)cc2)C1=O [5c] | remaining activity at 5 µM (human recombinant AR [1]; at 5 µM, residual activity, L-idose as substrate, read-out: AR % enzyme residual activity at the indicated concentration): 88%; Inhibition of human AR (in words) (human recombinant AR [1]; L-idose as substrate): scarce inhibition; Inhibitory activity towards bovine lens AR (bovine lens AR): almost inactive
3.7 ± 0.2 | 40.3 ± 0.5 | 170 to 172 | – | O=C(O)C=CCN1C(=O)SC(=Cc2cccc3ccccc23)C1=O [5d, 4-{(5Z)-[5-(1-Naphtylmethylidene)-2,4-dioxothiazolidin-3-yl]}-2-butenoic acid] | –
3.8 ± 0.1 | 42.8 ± 0.7 | – | – | O=C(O)CCN1C(=O)/C(=C/c2cccc(OCc3ccccc3)c2)SC1=S [4c, 3-{(5Z)-5-[(3-Benzyloxyphenyl)methylidene]-4-oxo-2-thioxothiazolidin-3-yl}propanoic acid] | –

The next lines start with the molecule.

SMILES | IC50 (human recombinant AR [1]) [µM] | IC50 (human recombinant PTP1B [2]) [µM] | melting point [°C] | remaining activity at 50 µM (human recombinant PTP1B [2]) [%] | also measured
O=C(O)CCN1C(=O)S/C(=C\c2ccc(OCCc3ccccc3)cc2)C1=O [3f, 3-[(5Z)-2,4-Dioxo-{5-[4-(2-phenylethoxy)phenyl]methylidene}thiazolidin-3-yl]propanoic acid] | 50.2 ± 4.6 | – | 160 to 163 | 46 | AR inhibitory potency relative to the corresponding acetic acid analogues 1, 2 (human recombinant AR [1]): two orders of magnitude higher
O=C(O)CCN1C(=O)S/C(=C\c2cccc(OCCc3ccccc3)c2)C1=O [3e, 3-[(5Z)-2,4-Dioxo-{5-[3-(2-phenylethoxy)phenyl]methylidene}thiazolidin-3-yl]propanoic acid] | 27.9 ± 3.1 | – | 130 to 133 | 64 | AR inhibitory potency relative to the corresponding acetic acid analogues 1, 2 (human recombinant AR [1]): two orders of magnitude higher
O=C(O)CCN1C(=O)S/C(=C\c2ccc(OCc3ccccc3)cc2)C1=O [3d, 3-{(5Z)-[5-(4-Benzyloxyphenyl)methylidene]-2,4-dioxothiazolidin-3-yl}propanoic acid] | 35.7 ± 3 | – | 195 to 199 | 77 | Inhibition of human PTP1B by virtual screening hit (in words) (human recombinant PTP1B [2]; in vitro evaluation of selected virtual hits, previously conducted): moderate capability to inhibit
O=C(O)CCN1C(=O)S/C(=C\c2cccc(OCc3ccccc3)c2)C1=O [3c, 3-{(5Z)-[5-(3-Benzyloxyphenyl)methylidene]-2,4-dioxothiazolidin-3-yl}propanoic acid] | 14.3 ± 1 | – | 142 to 145 | 76 | –
O=C(O)CCN1C(=O)S/C(=C\c2cccc(Oc3ccccc3)c2)C1=O [3a, 3-{(5Z)-[2,4-Dioxo-5-(3-phenoxyphenyl)methylidene]thiazolidin-3-yl}propanoic acid] | 11.9 ± 0.9 | – | 177 to 180 | 79 | –
O=C(O)CCN1C(=O)S/C(=C\c2ccc(Oc3ccccc3)cc2)C1=O [3b, 3-{(5Z)-[2,4-Dioxo-5-(4-phenoxyphenyl)methylidene]thiazolidin-3-yl}propanoic acid] | 43.8 ± 7.1 | – | 198 to 202 | 56 | –
